In the test the test system is individually reexpressed FZDs (1,2,4,5,7,8, and 10). Kind of test: TopFlash in ΔFZD1–10 HEK293T, panel of individually reexpressed FZDs, Wnt3a-stimulated (collective statements). The settings on record: compared with pcDNA+CHIR99021.

Experimental findings from article PMC11650735, “Challenging Reported Frizzled-Targeting Compounds in Selective Assays Reveals Lack of Functional Inhibition and Claimed Profiles” (ACS Pharmacology & Translational Science, 2024) are described below.

Turning to `O=C(/C=C/c1ccc2c(c1)OCO2)Nc1ccc(-n2cnc3ccccc32)cc1` [SRI35959], the “FZDs whose reintroduction reduces the compound's potency” value is “FZD1,4, and 7”.

Consider `NC(=O)N1c2ccccc2C=Cc2ccccc21` [carbamazepine], for which the “FZDs whose reintroduction reduces the compound's potency” value is “FZD5 and FZD8”.
